The source made the active and inactive calls. No cut-off for these calls is given here.
Columns and labels:
[1] = biological target: T1, Glutamate NMDA receptor (Mus musculus) (UniProt P35436+Q91ZU9+Q03391+P35438+Q01097+Q01098+A2AIR5); test: Positive allosteric modulation of C57BL/6 mouse NMDA receptor assessed as potentiation of NMDA-induced current by measuring peak current amplitude at 30 uM measured after 15 to 30 mins by patch-clamp method (reference value: 54.6 +/- 4.6 pA); type: tissue-based; conditions: Brain, filed as positive allosteric modulator, time 15-30 min
[2] = biological target: T1, Glutamate NMDA receptor (Mus musculus); test: Positive allosteric modulation of C57BL/6 mouse NMDA receptor assessed as fold change in compound potentiated NMDA-induced current relative to NMDA current alone at 30 uM measured after 15 to 30 mins by patch-clamp method; type: tissue-based; conditions: Brain, filed as positive allosteric modulator, time 15-30 min
[3] = Brain to blood partition coefficient of the compound; type: physicochemical, tissue-based; conditions: read-out: logBB (converted)
Mus musculus [4] = test: Antidepressant activity in ICR mouse assessed as decrease in immobility time at 30 mg/kg, ip measured after 26 mins by forced swim test; type: functional, organism-based
[5] = Half life in ICR mouse at 10 mg/kg, po measured up to 24 hrs by HPLC-MS/MS analysis; type: ADME, organism-based; conditions: in vivo
[6] = Ratio of drug concentration in brain to plasma in ICR mouse at 10 mg/kg, po measured at 0.5 hrs by LC-MS/MS analysis; type: ADME, organism-based; conditions: read-out: BPR
[7] = Oral bioavailability in ICR mouse at 10 mg/kg measured up to 24 hrs by HPLC-MS/MS analysis; type: ADME, organism-based; conditions: in vivo
[8] = […] in ICR mouse assessed as decrease in body weight at 30 mg/kg, po administered for 28 days; type: organism-based; conditions: in vivo, 672 h, time 28 day
[9] = Cytotoxicity against mouse L929 cells assessed as cell growth inhibition at 60 uM measured after 48 hrs by CCK8 assay relative to control; type: cell-based
[10] = Tmax in ICR mouse at 10 mg/kg, po measured up to 24 hrs by HPLC-MS/MS analysis; type: ADME, organism-based; conditions: in vivo
[11] = Ratio of drug concentration in brain to plasma in ICR mouse at 3 mg/kg, iv measured at 0.5 hrs by LC-MS/MS analysis; type: ADME, organism-based; conditions: read-out: BPR
[12] = AUC (0 to t) in ICR mouse at 3 mg/kg, iv measured up to 24 hrs by HPLC-MS/MS analysis; type: ADME, organism-based; parameters: route intravenous, dose 3 mg/kg, time <=24; conditions: in vivo
[13] = […] in ICR mouse assessed as change in behaviour at 30 mg/kg, po administered for 28 days; type: organism-based; conditions: in vivo, 672 h, time 28 day
[14] = Drug concentration in ICR mouse plasma at 3 mg/kg, iv measured at 2 hrs; type: ADME, organism-based
[15] = Acute toxicity in ip dosed ICR mouse assessed as lethal dose measured after 24 hrs; type: organism-based; conditions: in vivo
[16] = Cytotoxicity against African green monkey Vero cells assessed as cell growth inhibition at 120 uM measured after 48 hrs by CCK8 assay relative to control; type: cell-based; conditions: chlorocebus sabaeus
Mus musculus [17] = test: Antidepressant activity in ICR mouse aassessed as inhibition of apomorphine-induced climbing behaviour at 10 mg/kg, ip administered prior to APO challenge and measured after 30 mins; type: functional, organism-based
[18] = Drug concentration in ICR mouse brain at 10 mg/kg, po measured at 2 hrs by LC-MS/MS analysis; type: ADME, organism-based; conditions: read-out: Ct
L929 = test: Cytotoxicity against mouse L929 cells assessed as cell growth inhibition measured after 48 hrs by CCK8 assay; type: cell-based; conditions: L929, 48 h
[19] = Effect on locomotor activity in ICR mouse assessed as hyperlocomotion at 10 mg/kg, ip measured after 90 mins; type: ADME, organism-based; conditions: in vivo, 1.5 h
[20] = Ratio of drug concentration in brain to plasma in ICR mouse at 3 mg/kg, iv measured at 2 hrs by LC-MS/MS analysis; type: ADME, organism-based; conditions: read-out: BPR
[21] = Drug concentration in ICR mouse brain at 3 mg/kg, iv measured at 0.5 hrs by LC-MS/MS analysis; type: ADME, organism-based; conditions: read-out: Ct
Mus musculus [22] = test: Antidepressant activity in ICR mouse assessed as decrease in immobility time at 3 to 10 mg/kg, ip measured after 26 mins by forced swim test; type: functional, organism-based; conditions: dose 3-10 mg/kg
[23] = Clearance in ICR mouse at 3 mg/kg, iv measured up to 24 hrs by HPLC-MS/MS analysis; type: ADME, organism-based; conditions: in vivo
hERG (KCNH2) [24] = biological target: T2, hERG (KCNH2) (Homo sapiens, UniProt Q12809); test: Inhibition of human ERG expressed in CHO cells at 30 uM with holding potential at -80 to -60 mV for 500s followed by raise in potential at +30 mV for 2 sec and subsequent repolarization to -60 mV for 2 sec by whole-cell patch clamp method relative to control; type: cell-based; conditions: CHO cells expressing human ERG
[25] = Drug concentration in ICR mouse plasma at 3 mg/kg, iv measured at 0.5 hrs by LC-MS/MS analysis; type: ADME, organism-based
[26] = Half life in ICR mouse at 3 mg/kg, iv measured up to 24 hrs by HPLC-MS/MS analysis; type: ADME, organism-based; conditions: in vivo
[27] = Cytotoxicity against human HEK293 cells assessed as cell growth inhibition at 120 uM measured after 48 hrs by CCK8 assay relative to control; type: cell-based
[28] = Drug concentration in ICR mouse brain at 10 mg/kg, po measured at 0.5 hrs by LC-MS/MS analysis; type: ADME, organism-based; conditions: read-out: Ct
[29] = Cytotoxicity against human HEK293 cells assessed as cell growth inhibition at 60 uM measured after 48 hrs by CCK8 assay relative to control; type: cell-based
[30] = MRT in ICR mouse at 10 mg/kg, po measured up to 24 hrs by HPLC-MS/MS analysis; type: ADME, organism-based; conditions: in vivo
[31] = Cmax in ICR mouse at 10 mg/kg, po measured up to 24 hrs by HPLC-MS/MS analysis; type: ADME, organism-based; parameters: route oral, dose 10 mg/kg, time <=24; conditions: in vivo
Glutamate NMDA receptor = test: Positive allosteric modulation of C57BL/6 mouse NMDA receptor assessed as potentiation of NMDA-induced current in presence of saturating glutamate by patch-clamp method; type: tissue-based, Brain
[32] = Drug concentration in ICR mouse plasma at 10 mg/kg, po measured at 0.5 hrs by LC-MS/MS analysis; type: ADME, organism-based
[33] = MRT in ICR mouse at 3 mg/kg, iv measured up to 24 hrs by HPLC-MS/MS analysis; type: ADME, organism-based; conditions: in vivo
HEK293 = test: Cytotoxicity against human HEK293 cells assessed as cell growth inhibition measured after 48 hrs by CCK8 assay; type: cell-based; conditions: HEK293, 48 h
[34] = Cytotoxicity against mouse L929 cells assessed as cell growth inhibition at 120 uM measured after 48 hrs by CCK8 assay relative to control; type: cell-based
[35] = […] in ICR mouse assessed as body weight gain at 30 mg/kg, po administered for 28 days; type: organism-based; conditions: in vivo, 672 h, time 28 day
[36] = Volume of distribution at steady state in ICR mouse at 3 mg/kg, iv measured up to 24 hrs by HPLC-MS/MS analysis; type: ADME, organism-based; conditions: in vivo, read-out: Vdss
hERG (KCNH2) [37] = biological target: T2, hERG (KCNH2); test: Inhibition of human ERG expressed in CHO cells at 100 uM with holding potential at -80 to -60 mV for 500s followed by raise in potential at +30 mV for 2 sec and subsequent repolarization to -60 mV for 2 sec by whole-cell patch clamp method relative to control; type: cell-based; conditions: CHO cells expressing human ERG
[38] = AUC (0 to t) in ICR mouse at 10 mg/kg, po measured up to 24 hrs by HPLC-MS/MS analysis; type: ADME, organism-based; parameters: route oral, dose 10 mg/kg, time <=24; conditions: in vivo
[39] = Drug concentration in ICR mouse plasma at 10 mg/kg, po measured at 2 hrs by LC-MS/MS analysis; type: ADME, organism-based
Vero = test: Cytotoxicity against African green monkey Vero cells assessed as cell growth inhibition measured after 48 hrs by CCK8 assay; type: cell-based; conditions: Chlorocebus sabaeus
[40] = Cytotoxicity against African green monkey Vero cells assessed as cell growth inhibition at 60 uM measured after 48 hrs by CCK8 assay relative to control; type: cell-based; conditions: chlorocebus sabaeus
[41] = Effect on locomotor activity in ICR mouse assessed as hypolocomotion at 10 mg/kg, ip measured after 90 mins; type: ADME, organism-based; conditions: in vivo, 1.5 h
[42] = Ratio of drug concentration in brain to plasma in ICR mouse at 10 mg/kg, po measured at 2 hrs by LC-MS/MS analysis; type: ADME, organism-based; conditions: read-out: BPR
[43] = Drug concentration in ICR mouse brain at 3 mg/kg, iv measured at 2 hrs; type: ADME, organism-based; conditions: read-out: Ct

T2 sequence (Q12809 whole entry): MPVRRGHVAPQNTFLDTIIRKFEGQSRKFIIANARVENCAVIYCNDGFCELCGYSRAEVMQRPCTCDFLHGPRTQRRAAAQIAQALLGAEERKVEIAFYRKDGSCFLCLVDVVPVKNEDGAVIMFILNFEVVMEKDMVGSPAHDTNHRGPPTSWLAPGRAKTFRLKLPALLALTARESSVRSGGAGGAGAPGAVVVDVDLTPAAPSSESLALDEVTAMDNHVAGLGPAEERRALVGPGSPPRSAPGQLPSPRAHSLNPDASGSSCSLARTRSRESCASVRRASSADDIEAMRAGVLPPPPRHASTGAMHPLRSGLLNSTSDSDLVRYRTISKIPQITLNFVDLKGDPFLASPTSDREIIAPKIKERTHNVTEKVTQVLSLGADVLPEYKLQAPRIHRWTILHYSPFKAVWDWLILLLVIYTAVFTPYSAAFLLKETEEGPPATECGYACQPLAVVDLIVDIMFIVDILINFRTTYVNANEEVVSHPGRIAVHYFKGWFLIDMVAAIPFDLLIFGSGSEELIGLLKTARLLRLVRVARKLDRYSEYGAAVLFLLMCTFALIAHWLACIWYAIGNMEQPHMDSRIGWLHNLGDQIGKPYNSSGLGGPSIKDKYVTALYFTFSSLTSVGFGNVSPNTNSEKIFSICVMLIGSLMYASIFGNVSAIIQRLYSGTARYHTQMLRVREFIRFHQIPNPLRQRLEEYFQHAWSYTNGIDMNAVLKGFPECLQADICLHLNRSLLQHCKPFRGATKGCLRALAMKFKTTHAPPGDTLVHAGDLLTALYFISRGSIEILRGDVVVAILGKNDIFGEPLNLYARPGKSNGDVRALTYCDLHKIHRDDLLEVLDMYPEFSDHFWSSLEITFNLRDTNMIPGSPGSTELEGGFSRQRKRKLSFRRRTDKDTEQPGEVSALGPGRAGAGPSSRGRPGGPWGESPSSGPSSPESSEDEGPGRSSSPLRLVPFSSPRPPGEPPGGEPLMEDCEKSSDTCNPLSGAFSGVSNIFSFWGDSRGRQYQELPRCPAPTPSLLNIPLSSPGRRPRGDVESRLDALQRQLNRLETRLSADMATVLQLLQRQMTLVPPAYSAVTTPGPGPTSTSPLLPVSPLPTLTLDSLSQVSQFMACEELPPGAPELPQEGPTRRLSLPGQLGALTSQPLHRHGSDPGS

`O=C(Nc1ccc(Cl)cc1C(=O)NCCCCO)c1ccco1` showed an Activity [1] of 1320 pA, a fold change (FC) [2] of 3.5 and a Kp [3] of 0.0776.

For `O=C(Nc1cc(Cl)cc(Cl)c1)c1ccc(Cn2nc(C(F)(F)F)cc2C(F)(F)F)o1`, the Activity (Mus musculus [4]) was “Active”, the half-life [5] was 5.7 h and the Kp at 0.5 h [6] was 0.16. For the same compound, the bioavailability [7] was 72.2%, the Activity [8] was “Toxic” and the inhibition at 48 h, 60 µM [9] was 84.3%. The Tmax [10] was 2 h, the Kp at 0.5 h [11] was 0.14 and the AUC(0-t) at 24 h [12] was 1750 ng·h/mL. For the same compound, the Activity [13] was “Non-Toxic”, the concentration at 2 h [14] was 304 ng/mL and the LD50 at 24 h [15] was 1500 mg/kg. The inhibition at 48 h, 120 µM [16] was 95.8%, the Activity (Mus musculus [17]) was “inactive” and the concentration at 2 h [18] was 148 ng/mL. For the same compound, the IC50 (L929) was 29.7 µM, the Activity [19] was “Non-Toxic” and the Kp at 2 h [20] was 0.16. For the same compound, the concentration at 0.5 h [21] was 73.9 ng/mL, the Activity (Mus musculus [22]) was “Active” and the clearance [23] was 30 mL/min/kg. For the same compound, the inhibition at 2 s, 30 µM (hERG (KCNH2) [24]) was 49.1%, the concentration at 0.5 h [25] was 506 ng/mL and the half-life [26] was 5 h. The inhibition at 48 h, 120 µM [27] was 73.6%, the concentration at 0.5 h [28] was 93.4 ng/mL and the inhibition at 48 h, 60 µM [29] was 42%. The MRT [30] was 4.7 h, the Cmax [31] was 989 ng/mL and the EC50 (Glutamate NMDA receptor) was 12.5 µM. The concentration at 0.5 h [32] was 580 ng/mL, the MRT [33] was 3.4 h and the IC50 (HEK293) was 84.8 µM. The inhibition at 48 h, 120 µM [34] was 90.6%, the Activity [35] was “Non-Toxic” and the Vd [36] was 12.7 L/kg. The Kp [3] was 3.98, the inhibition at 2 s, 100 µM (hERG (KCNH2) [37]) was 68.4% and the AUC(0-t) at 24 h [38] was 4220 ng·h/mL. It also gave a concentration at 2 h [39] of 989 ng/mL, an IC50 (Vero) of 23.2 µM and an inhibition at 48 h, 60 µM [40] of 96.2%. For the same compound, the Activity [41] was “Non-Toxic”, the Kp at 2 h [42] was 0.15 and the concentration at 2 h [43] was 49 ng/mL.
